Assay results as given in article PMC4129108, “The natural triterpene 3β,6β,16β-trihydroxy-lup-20(29)-ene obtained from the flowers of Combretum leprosum induces apoptosis in MCF-7 breast cancer cells” (BMC Complementary and Alternative Medicine, 2014).
Values after ≈ are worked out from the molar mass of the structure shown. “Also recorded” adds a separate entry of the source.

Tests used:
[1] = system: S. cerevisiae haploid strain XV185-14c; test: Point and frameshift mutations and survival in XV185-14c haploid yeast; assay type: cell-based, Saccharomyces cerevisiae; details: for HIS1/10^7 survivors (locus-specific revertants) / HOM3/10^8 survivors (locus-specific revertants, frameshift) / LYS1/10^8 survivors (locus non-specific revertants) / Survival (%): XV185-14c, STAT cells treated in PBS; for Survival (%): 1 h 30°C
Description: Media, solutions and buffers were prepared according to Burke et al.. YPD medium (0.5% yeast extract, 2% peptone, 2% glucose) was used for routine growth. Synthetic medium SC (0.67% yeast nitrogen base, 0.1% ammonium sulfate, 2% glucose) supplemented with the appropriate amino acids and bases ([…]) was used for the detection of mutations.
Stationary phase (STAT) cultures were obtained by inoculation of a single colony into liquid YPD. We chose to work in the stationary phase of growth because this resembles most cells of multicellular organisms in important aspects: (i) most energy comes from mitochondrial respiration; (ii) the cells have left the active cell cycle and have entered the Go phase; and (iii) damage accumulates over time.
Cell cultures were grown as described above, exposed to TTHL in concentrations ranging from 10 to 500 μg/mL, and then incubated in PBS for 1 h at 30°C. Two alleles, his1-798 and lys1-1, were used to detect point mutagenesis. The suppressible ochre nonsense mutant allele lys1-1 can be reverted either by locus-specific sequence alteration (true reversion) or by a forward mutation in a suppressor gene. […] Survival was determined on SC medium (3–5 days, 30°C) and mutation induction (HIS, LYS or HOM revertants) on media lacking the appropriate amino acid (7–10 days, 30°C). Induction of reversion of point mutation to his1-798, ochre allele lys1-1, and frameshift mutation values were scored per number of surviving cells.

MCF-7 cells = test: Cell cycle distribution by flow cytometric analysis (PI); assay type: cell-based, human; details: MCF-7, 24 h
Description: (§1) Cells (2 × 10^5 cells/mL) were seeded on 6-well tissue culture plates, and grown for 1 day up to 70–80% confluence before treatment with the test substance. The TTHL was added to medium with FBS to obtain the different concentrations, and cells were treated at 37°C for 24 h in humidified atmosphere containing 5% CO2.
Cell cycle distribution determination analysis was performed as previously described. After treatment, cells were trypsinized, centrifuged and resuspended in ice-cold 70% ethanol, and left for 24 h at 4°C. Ethanol-fixed cells were centrifuged, washed with PBS and resuspended in buffer containing 0.2 mg/mL RNAse, 50 μg/mL PI and 0.1% Triton X-100, and incubated for 30 min at room temperature. Samples were analyzed on a FACS Calibur flow cytometer (Becton-Dikinson, San Fransisco, CA) using the CellQuest software. A total of 10,000 events were measured per sample. The data were analyzed to determine the percentage of cells at each phase of the cell cycle (sub-G1, G1, S and G2/M).

[2] = system: cleaved caspase-9 in MCF-7 cells; test: Quantification of cleaved caspase-9 by flow cytometric analysis; assay type: cell-based, human; details: MCF-7, 24 h
Description: as §1
After treatment, cells (1 × 10^6) were harvested, resuspended in 25 μL PBS and fixed with 4% formaldehyde. After permeabilization and blocking (0.2% Triton X-100 in PBS and 1% BSA), cells were incubated with anti-caspase-9 antibody (diluted 1:1000) for 1 h at room temperature, followed by incubation with anti-rabbit FITC secondary antibody (Uniscience) (diluted 1:1000) for 1 h at room temperature in the dark. A total of 10,000 events were analyzed per sample by FACS Calibur flow cytometer. Fluorescence intensity in arbitrary units was plotted in histograms; the mean fluorescence intensity was calculated using CellQuest software.

HepG2 (hepatoma) = test: XTT cell viability assay, HepG2; assay type: cell-based, human; details: for IC50: Homo sapiens, XTT
Description: The human cell lines MCF-7 (breast adenocarcinoma), HepG2 (hepatoma), T24 (bladder cancer), CACO-2 (colorectal adenocarcinoma) and MRC5 (lung normal fibroblast) were obtained from the Rio de Janeiro Cell Bank (Rio de Janeiro, RJ, Brazil). The HCT116 cell (colorectal carcinoma), and HT29 cell (colorectal adenocarcinoma) were kindly provided by Dr. Annette K. Larsen (Institut National de la Santé et de la Recherche Médicale - INSERM, Paris, França). All cell lines except MCF-7 were grown in DMEM supplemented with 10% or 20% (for CACO-2) FBS, 100 units.mL^-1 penicillin and 100 μg.mL^-1 streptomycin at 37°C in a humidified atmosphere of 5% CO2. MCF-7 cells were maintained in RPMI-1640 supplemented with 20% FBS at the same conditions described above.
The cytotoxic potential of the TTHL was evaluated by the XTT assay in human tumor cell lines as well as in MRC5 normal fibroblasts. Cells (1 × 10^4 cells) were seeded on 96-well plates in growth medium and incubated overnight. Afterwards, TTHL (0.5, 1.0, 2.5, 5.0, and 10 μg/mL) was added to each well and incubated for 24, 48, 72, and 120 h. Mitoxantrone, a cytostatic anthracenedione that intercalates in DNA and increases the incidence of double-strand breaks by stabilizing the cleavable complex of topoisomerase II and DNA, was used as positive control. At the end of each treatment, cell viability was assessed according to the manufacturer’s instructions. Briefly, after discarding the medium, 1 mL of XTT labeling mixture was added to the cells and incubated for 2 h at 37°C. Absorbance was measured with a SpectraMax reader (Bio-Rad, USA) at a test wavelength of 492 nm (A492) and a reference wavelength of 690 nm (A690). The final result corresponds to A492-A690. The absorbance of negative control cells was set as 100% viability, and the values for treated cells were calculated as a percentage of the control.
The IC20, IC50, and IC80 values and their 95% confidence intervals (CI 95%) were obtained by nonlinear regression using GraphPad Prism v5 program (Intuitive Software for Science, San Diego, CA, USA). Selective index (SI) was calculated by IC50 in MRC5 cells/IC50 in tumoral cells. All experiments were independently repeated at least three times, with triplicate samples for each treatment. Results are expressed as means ± standard deviation (SD). Data were analyzed by one-way analysis of variance (ANOVA), and means were compared using Tukey test, with P ≤ 0.05 considered as statistically significant.

SMILES: C=C(C)[C@@H]1CC[C@@]2(C)[C@H]1[C@H]1CC[C@@H]3[C@@]4(C)CC[C@H](O)C(C)(C)[C@@H]4[C@H](O)C[C@@]3(C)[C@]1(C)C[C@@H]2O [TTHL, 3β,6β,16β-trihydroxy-lup-20(29)-ene]
- mutagenicity in yeast strain XV185-14c (in words) ([1]; 10 to 500 μg/mL, his1-798, lys1-1, hom3-10 loci): induced mutagenicity; also recorded: only able to induce mutagenesis on the assessed loci at the highest concentration
- HIS1/10^7 survivors (locus-specific revertants) ([1]; 10 μg/mL): 10.77 ± 4.40 /10^7 survivors
- HOM3/10^8 survivors (locus-specific revertants, frameshift) ([1]; 10 μg/mL): 6.11 ± 1.58 /10^8 survivors
- LYS1/10^8 survivors (locus non-specific revertants) ([1]; 10 μg/mL): 4.78 ± 0.63 /10^8 survivors
- Survival (%) ([1]; 10 μg/mL): 84.90%
- HIS1/10^7 survivors (locus-specific revertants) ([1]; 50 μg/mL): 13.33 ± 1.10 /10^7 survivors
- HOM3/10^8 survivors (locus-specific revertants, frameshift) ([1]; 50 μg/mL): 8.80 ± 0.14 /10^8 survivors
- LYS1/10^8 survivors (locus non-specific revertants) ([1]; 50 μg/mL): 5.68 ± 2.22 /10^8 survivors
- Survival (%) ([1]; 50 μg/mL): 72.83%
- HIS1/10^7 survivors (locus-specific revertants) ([1]; 100 μg/mL): 20.83 ± 1.80 /10^7 survivors
- HOM3/10^8 survivors (locus-specific revertants, frameshift) ([1]; 100 μg/mL): 8.49 ± 2.12 /10^8 survivors
- LYS1/10^8 survivors (locus non-specific revertants) ([1]; 100 μg/mL): 9.72 ± 0.55 /10^8 survivors
- Survival (%) ([1]; 100 μg/mL): 65.00%
- HIS1/10^7 survivors (locus-specific revertants) ([1]; 500 μg/mL): 30.10 ± 0.21 /10^7 survivors
- HOM3/10^8 survivors (locus-specific revertants, frameshift) ([1]; 500 μg/mL): 11.15 ± 0.92 /10^8 survivors
- LYS1/10^8 survivors (locus non-specific revertants) ([1]; 500 μg/mL): 14.40 ± 3.40 /10^8 survivors
- Survival (%) ([1]; 500 μg/mL): 69.00%
- change in cell cycle progression (MCF-7 cells; TTHL at IC20, IC50, IC80): no significant change in cell cycle progression
- sub-G1 population (MCF-7 cells; seen at IC50 and IC80, concentration-dependent): significant increase in the sub-G1 population
- levels of cleaved caspase-9 ([2]; TTHL at IC20): no significant changes
- induction of cleaved caspase-9-labeled cells ([2]; TTHL at IC50): increased induction of cleaved caspase-9-labeled cells
- induction of cleaved caspase-9-labeled cells ([2]; TTHL at IC80): increased induction of cleaved caspase-9-labeled cells
- IC50 (HepG2 (hepatoma); HepG2, 24 h treatment): 6.5 ± 0.43 µg/mL (≈ 14.2 µM)
- IC50 (HepG2 (hepatoma); HepG2, 48 h treatment): 6.1 ± 0.28 µg/mL (≈ 13.3 µM)
- IC50 (HepG2 (hepatoma); HepG2, 72 h treatment): 5.45 ± 0.35 µg/mL (≈ 11.9 µM)
- IC50 (HepG2 (hepatoma); HepG2, 120 h treatment): 0.88 ± 0.13 µg/mL (≈ 1.92 µM)
- Selectivity index (SI) (HepG2 (hepatoma); IC50 in MRC5 cells/IC50 in HepG2, 24 h): 1.3 X
- Selectivity index (SI) (HepG2 (hepatoma); IC50 in MRC5 cells/IC50 in HepG2, 48 h): 1 X
- Selectivity index (SI) (HepG2 (hepatoma); IC50 in MRC5 cells/IC50 in HepG2, 72 h): 1 X
- Selectivity index (SI) (HepG2 (hepatoma); IC50 in MRC5 cells/IC50 in HepG2, 120 h): 8 X
